Laboratory results: PMC11423540, “Synthesis and biological evaluation of ortho-phenyl phenylhydroxamic acids containing phenothiazine with improved selectivity for class IIa histone deacetylases” (Journal of Enzyme Inhibition and Medicinal Chemistry, 2024)
Where two headings read alike, the source gives them in different places.

Tests used:
HDAC6 = molecular target: T1, HDAC6 (Homo sapiens, UniProt Q9UBN7); assay: HDAC inhibition assay, HDAC6
T1 sequence (Q9UBN7 1-1215): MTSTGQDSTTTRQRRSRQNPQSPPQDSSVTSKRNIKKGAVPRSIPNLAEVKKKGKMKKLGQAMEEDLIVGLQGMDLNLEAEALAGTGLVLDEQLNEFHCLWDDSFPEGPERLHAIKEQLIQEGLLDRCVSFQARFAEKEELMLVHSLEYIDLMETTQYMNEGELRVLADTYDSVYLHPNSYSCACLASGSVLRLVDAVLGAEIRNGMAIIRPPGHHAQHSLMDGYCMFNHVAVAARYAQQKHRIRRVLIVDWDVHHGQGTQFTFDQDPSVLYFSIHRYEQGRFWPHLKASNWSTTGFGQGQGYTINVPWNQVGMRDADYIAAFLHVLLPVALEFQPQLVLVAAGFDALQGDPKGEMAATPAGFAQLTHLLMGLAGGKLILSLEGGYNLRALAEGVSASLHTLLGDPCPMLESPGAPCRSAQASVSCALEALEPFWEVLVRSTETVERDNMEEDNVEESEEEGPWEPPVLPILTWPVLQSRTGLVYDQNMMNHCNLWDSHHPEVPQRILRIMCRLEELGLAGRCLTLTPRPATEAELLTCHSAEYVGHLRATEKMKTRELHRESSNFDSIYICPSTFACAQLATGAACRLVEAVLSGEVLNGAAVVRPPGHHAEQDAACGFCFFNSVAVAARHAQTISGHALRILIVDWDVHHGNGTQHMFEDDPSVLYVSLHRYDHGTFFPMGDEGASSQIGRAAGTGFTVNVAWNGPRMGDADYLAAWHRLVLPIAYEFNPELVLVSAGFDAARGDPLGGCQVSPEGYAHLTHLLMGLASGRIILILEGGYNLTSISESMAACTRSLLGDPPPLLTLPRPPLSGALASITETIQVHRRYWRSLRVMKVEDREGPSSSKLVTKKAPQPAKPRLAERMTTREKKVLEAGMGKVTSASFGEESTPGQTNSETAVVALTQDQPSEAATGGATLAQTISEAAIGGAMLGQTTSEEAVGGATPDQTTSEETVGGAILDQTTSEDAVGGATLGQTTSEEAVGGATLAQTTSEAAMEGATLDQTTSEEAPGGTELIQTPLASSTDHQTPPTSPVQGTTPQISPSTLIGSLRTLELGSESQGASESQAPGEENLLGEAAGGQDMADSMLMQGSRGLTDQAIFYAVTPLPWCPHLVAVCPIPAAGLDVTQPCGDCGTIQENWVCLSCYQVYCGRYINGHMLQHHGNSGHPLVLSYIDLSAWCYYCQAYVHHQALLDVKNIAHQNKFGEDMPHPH

SCC2095 cells [1] = assay: Cell viability (MTT) assay, SCC2095; type: cell-based; conditions: 48 h, human oral cancer cells, read-out: IC50 of cytotoxicity SCC2095
Method: Human breast cancer MDA-MB-231 cells and gastric cancer SCM-1 cells were purchased from the American Type Culture Collection (Manasas, VA, USA). SCC2095 human oral cancer cells were kindly provided by Professor Susan R. Mallery (The Ohio State University).
To assess cell viability, cells were seeded in three replicates into 96-well plates at a density of 5×10^3/well for 24 h following incubation with compounds at the indicated concentrations. Then, cell viability was assessed with 3–(4,5-dimethylthiazol-2-yl)-2,5-diphenyltetrazolium bromide (MTT) solution (0.5 mg/mL) for 4h as described previously. After removing the medium, 200 µL of DMSO was added, and then the absorbance was measured at 570 nm using a plate reader (BMG LABTECH, Germany).

HeLa nuclear HDACs = assay: HDAC inhibition assay, HeLa nuclear extract (mixture of class I HDACs 1, 2, and 3); conditions: read-out: IC50 HeLa nuclear HDACs, Boc-Lys-(AMC) substrate
HDAC9 = HDAC9 (Homo sapiens, UniProt Q9UKV0); assay: HDAC inhibition assay, HDAC9
HDAC7 = molecular target: T2, HDAC7 (Homo sapiens, UniProt Q8WUI4); assay: HDAC inhibition assay, HDAC7
T2 sequence (Q8WUI4 1-952): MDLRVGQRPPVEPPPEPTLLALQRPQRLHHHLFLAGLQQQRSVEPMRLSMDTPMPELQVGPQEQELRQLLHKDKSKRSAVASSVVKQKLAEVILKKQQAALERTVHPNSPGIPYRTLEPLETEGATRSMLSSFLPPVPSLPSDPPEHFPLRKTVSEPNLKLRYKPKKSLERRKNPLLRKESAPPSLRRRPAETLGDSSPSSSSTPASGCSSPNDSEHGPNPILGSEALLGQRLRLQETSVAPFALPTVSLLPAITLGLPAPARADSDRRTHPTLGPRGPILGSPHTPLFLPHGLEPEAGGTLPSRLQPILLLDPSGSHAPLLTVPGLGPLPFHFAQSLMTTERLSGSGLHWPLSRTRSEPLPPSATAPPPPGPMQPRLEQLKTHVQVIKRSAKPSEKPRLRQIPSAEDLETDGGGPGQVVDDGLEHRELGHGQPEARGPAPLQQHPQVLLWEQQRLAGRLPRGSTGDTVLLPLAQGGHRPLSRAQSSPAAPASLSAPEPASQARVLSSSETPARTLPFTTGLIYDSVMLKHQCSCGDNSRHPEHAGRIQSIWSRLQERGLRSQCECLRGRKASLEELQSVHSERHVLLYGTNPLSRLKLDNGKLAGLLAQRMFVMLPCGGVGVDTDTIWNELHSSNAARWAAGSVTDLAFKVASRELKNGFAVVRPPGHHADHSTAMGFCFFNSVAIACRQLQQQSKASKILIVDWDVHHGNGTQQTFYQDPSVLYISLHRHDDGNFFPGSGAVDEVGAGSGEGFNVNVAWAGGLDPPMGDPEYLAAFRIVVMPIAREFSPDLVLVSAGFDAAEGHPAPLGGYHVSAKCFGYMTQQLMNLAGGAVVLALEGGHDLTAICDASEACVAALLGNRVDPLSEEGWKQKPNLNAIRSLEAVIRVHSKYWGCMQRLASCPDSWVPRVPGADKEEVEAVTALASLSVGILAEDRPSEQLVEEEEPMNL

HDAC4 = HDAC4 (Homo sapiens, UniProt P56524); assay: HDAC inhibition assay, HDAC4
SCC2095 cells [2] = assay: ROS determination by flow cytometry (DCFH-DA probe); type: cell-based, human; conditions: SCC2095, 12 h or 24 h
Method: Cells (2 × 10^5) were treated with tested compounds in 6-well plates for 24 h or 48 h, then washed with ice-cold PBS twice and harvested with trypsin. Cells were incubated with 5 µL Annexin V- FITC/PI (BD Pharmingen, San Diego) for 15 min in the dark condition. Then, the cells were measured by BD FACSCanto flow cytometer (BD, Franklin Lakes, NJ). For ROS determination, DMSO or H2O2 or compound 7 g-treated cells were stained with the ROS probe (DCFH-DA; 5 µM) and detected the DCFH-DA fluorescence.

SCC2095 cells [3] = assay: Western blotting of caspase- and HDAC-related proteins; type: cell-based, human; conditions: SCC2095, DNA damage biomarker, western blot
Method: The protein expression was performed as previously described. Proteins were resolved on 10% SDS-PAGE, then transferred to PVDF (Bio-Rad) membranes. After blocking with 5% skimmed milk in PBS containing 0.1% Tween 20, the membranes were probed with primary antibodies against interest target proteins at 4 °C overnight. The following primary antibodies were used: […], cleaved caspase 9, acetyl α-tubulin, Hsp90, Histone H2A.X, p38, p-^180Thr/^182Tyr p38, PPARγ, and p21 were purchased from Cell Signalling Technologies (Beverly, MA, USA); pro-caspase 8, Millipore; β-actin, Sigma-Aldrich (St. Louis, MO, USA). Then, the immunoblots were washed and exposed to HRP-conjugated secondary antibodies at room temperature for 1 h. The immunoblots were examined by enhanced chemiluminescence.

HDAC9, sequence (Q9UKV0 whole entry): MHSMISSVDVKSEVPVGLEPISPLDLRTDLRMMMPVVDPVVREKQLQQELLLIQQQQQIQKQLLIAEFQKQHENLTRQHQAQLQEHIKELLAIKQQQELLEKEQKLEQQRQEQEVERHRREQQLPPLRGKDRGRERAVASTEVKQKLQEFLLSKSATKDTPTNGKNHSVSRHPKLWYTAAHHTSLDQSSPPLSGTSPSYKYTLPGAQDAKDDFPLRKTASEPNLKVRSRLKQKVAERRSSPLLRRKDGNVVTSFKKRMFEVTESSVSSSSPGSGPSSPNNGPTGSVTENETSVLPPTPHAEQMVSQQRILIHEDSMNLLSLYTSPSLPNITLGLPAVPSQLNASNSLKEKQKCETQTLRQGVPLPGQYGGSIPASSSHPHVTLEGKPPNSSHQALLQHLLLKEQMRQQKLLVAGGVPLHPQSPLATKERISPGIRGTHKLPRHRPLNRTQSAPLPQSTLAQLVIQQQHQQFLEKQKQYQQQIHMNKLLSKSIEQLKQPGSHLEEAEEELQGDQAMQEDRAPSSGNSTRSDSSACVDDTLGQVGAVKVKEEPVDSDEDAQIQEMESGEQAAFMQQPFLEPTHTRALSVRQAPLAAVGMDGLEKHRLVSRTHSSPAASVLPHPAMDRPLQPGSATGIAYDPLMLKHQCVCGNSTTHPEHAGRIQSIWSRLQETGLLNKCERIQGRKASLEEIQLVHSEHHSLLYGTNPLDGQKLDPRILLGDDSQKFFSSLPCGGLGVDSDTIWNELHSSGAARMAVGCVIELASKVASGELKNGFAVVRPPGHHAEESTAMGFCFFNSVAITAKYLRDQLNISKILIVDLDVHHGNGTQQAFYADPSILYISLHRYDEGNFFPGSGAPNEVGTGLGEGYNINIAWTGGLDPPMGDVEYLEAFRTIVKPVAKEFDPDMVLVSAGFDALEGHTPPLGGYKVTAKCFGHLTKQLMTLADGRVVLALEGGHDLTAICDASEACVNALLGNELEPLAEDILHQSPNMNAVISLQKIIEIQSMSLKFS
HDAC4, sequence (P56524 whole entry): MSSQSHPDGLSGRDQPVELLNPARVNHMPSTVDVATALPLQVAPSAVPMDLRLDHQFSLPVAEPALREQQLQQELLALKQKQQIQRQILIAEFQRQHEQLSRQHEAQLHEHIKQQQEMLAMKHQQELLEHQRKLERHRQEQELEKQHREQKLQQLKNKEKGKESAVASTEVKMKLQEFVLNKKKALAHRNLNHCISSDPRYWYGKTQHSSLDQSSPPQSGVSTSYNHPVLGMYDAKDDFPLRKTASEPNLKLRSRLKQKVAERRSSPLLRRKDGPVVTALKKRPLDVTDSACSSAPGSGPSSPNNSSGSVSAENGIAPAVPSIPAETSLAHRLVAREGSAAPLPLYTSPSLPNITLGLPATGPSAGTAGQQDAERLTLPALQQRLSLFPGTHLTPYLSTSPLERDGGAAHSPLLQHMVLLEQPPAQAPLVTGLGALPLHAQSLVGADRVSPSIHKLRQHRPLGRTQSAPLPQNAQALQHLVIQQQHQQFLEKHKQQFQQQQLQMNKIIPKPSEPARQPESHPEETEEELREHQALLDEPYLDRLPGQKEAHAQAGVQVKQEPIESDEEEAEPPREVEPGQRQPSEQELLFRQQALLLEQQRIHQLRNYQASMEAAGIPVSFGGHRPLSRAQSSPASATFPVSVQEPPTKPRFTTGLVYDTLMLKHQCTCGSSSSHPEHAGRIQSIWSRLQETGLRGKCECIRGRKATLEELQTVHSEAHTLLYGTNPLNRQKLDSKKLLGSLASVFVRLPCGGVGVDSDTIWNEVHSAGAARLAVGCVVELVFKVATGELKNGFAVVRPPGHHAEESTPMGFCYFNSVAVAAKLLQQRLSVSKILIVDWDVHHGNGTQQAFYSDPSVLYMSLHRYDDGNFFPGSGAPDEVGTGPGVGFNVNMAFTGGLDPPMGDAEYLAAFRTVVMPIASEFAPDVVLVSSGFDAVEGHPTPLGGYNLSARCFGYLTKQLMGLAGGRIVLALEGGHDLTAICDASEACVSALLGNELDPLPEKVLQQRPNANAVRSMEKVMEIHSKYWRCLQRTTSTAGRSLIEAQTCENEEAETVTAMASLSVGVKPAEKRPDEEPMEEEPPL

Structure (SMILES)	IC50 (HDAC6) [µM]	IC50 (HeLa nuclear HDACs) [µM]	IC50 (HDAC9) [nM]	IC50 (HDAC7) [nM]	IC50 (HDAC4) [nM]	HDAC6 inhibitory activity, fold less potent than LH4f (HDAC6; versus LH4f) [fold]	IC50 (SCC2095 cells [1]; Homo sapiens) [µM]	IC50 (SCC2095 cells [1]) [µM]	ROS generation (SCC2095 cells [2])	phosphorylation of Histone H2A.X (SCC2095 cells [3])
O=C(NO)c1ccc(CN2c3ccccc3Sc3ccccc32)cc1-c1ccccc1 [Compound 7a, N-Hydroxy-4-[(10H-phenothiazin-10-yl)methyl]-2-phenylbenzamide]	3.2 ± 0.77	> 40	420 ± 60	710 ± 10	480 ± 40		3.9			
O=C(NO)c1ccc(CN2c3ccccc3Sc3ccc(Cl)cc32)cc1-c1ccccc1 [Compound 7b, N-Hydroxy-4-[(2-chloro-10H-phenothiazin-10-yl)methyl]-2-phenylbenzamide]	2.12 ± 0.37	> 40	200 ± 10	230 ± 20	280 ± 30		5			
O=C(NO)c1ccc(CN2c3ccccc3Sc3ccc(C(F)(F)F)cc32)cc1-c1ccccc1 [Compound 7c, N-Hydroxy-4-{[2-(trifluoromethyl)-10H-phenothiazin-10-yl]methyl}-2-phenylbenzamide]	3.19 ± 0.11	> 40	270 ± 20	230 ± 50	280 ± 40		6			
COc1ccc2c(c1)N(Cc1ccc(C(=O)NO)c(-c3ccccc3)c1)c1ccccc1S2 [Compound 7d, N-Hydroxy-4-[(2-methoxy-10H-phenothiazin-10-yl)methyl]-2-phenylbenzamide]	3.68 ± 0.41	> 40	640 ± 80	710 ± 120	800 ± 10		3.2			
CC(=NO)c1ccc2c(c1)N(Cc1ccc(C(=O)NO)c(-c3ccccc3)c1)c1ccccc1S2 [Compound 7f, N-Hydroxy-4-{2-[1-(hydroxyimino)ethyl]-10H-phenothiazin-10-yl}methyl-2-phenylbenzamide]	1.61 ± 0.09	> 40	320 ± 70	410 ± 20	580 ± 70		4.6			
NC(=O)c1ccc2c(c1)N(Cc1ccc(C(=O)NO)c(-c3ccccc3)c1)c1ccccc1S2 [Compound 7h]	0.75 ± 0.06	> 40	110 ± 10	160 ± 10	200 ± 50	150	3.6			
O=C(NO)c1ccc(CNC23CC4CC(CC(C4)C2)C3)cc1-c1ccccc1 [Compound 7i, N-Hydroxy-4-[(adamantan-1-ylamino)methyl]-2-phenylbenzamide]	> 40	> 40	23700 ± 4140	12900 ± 2140	18700 ± 2160		> 10			
O=C(NO)c1ccc(CN2CCCc3ccccc3C2)cc1-c1ccccc1 [Compound 7j, N-Hydroxy-4-[(1,3,4,5-tetrahydro-2H-benzo[c]azepin-2-yl)methyl]-2-phenylbenzamide]	18.22 ± 0.02	> 40	950 ± 50	840 ± 30	910 ± 70		> 10			
COc1cc([C@@H]2c3cc4c(cc3[C@@H](O[C@@H]3O[C@@H]5CO[C@@H](C)O[C@H]5[C@H](O)[C@H]3O)[C@H]3COC(=O)[C@H]23)OCO4)cc(OC)c1O [Etoposide, reference compound]							3.3 ± 0.5	2.3		
O=C(NCC1(c2nc(-c3ccccc3)cs2)CCOCC1)c1cccc(-c2noc(C(F)(F)F)n2)c1 [TMP269, reference compound]							18.1 ± 3.8		increased	increased

Continued, in another order:

IC50 (HDAC6) [µM]	IC50 (HeLa nuclear HDACs) [µM]	IC50 (HDAC9) [nM]	IC50 (HDAC7) [nM]	IC50 (HDAC4) [nM]	HDAC6 inhibitory activity, fold less potent than LH4f (HDAC6; versus LH4f) [fold]	Structure (SMILES)	IC50 (SCC2095 cells [1]; Homo sapiens) [µM]	IC50 (SCC2095 cells [1]) [µM]	ROS generation (SCC2095 cells [2])	phosphorylation of Histone H2A.X (SCC2095 cells [3])
7.6 ± 0.36	> 40	18600 ± 960	17900 ± 920	> 40000		COc1cc(-c2cc(CN3c4ccccc4Sc4ccc(C#N)cc43)ccc2C(=O)NO)cc(OC)c1OC [Compound 19a, N-Hydroxy-4-[(2-cyano-10H-phenothiazin-10-yl)methyl]-2–(3,4,5-trimethoxyphenyl)benzamide]	7.6			
4.03 ± 0.25	> 40	5340 ± 400	4030 ± 160	6280 ± 130		COc1ccc(-c2cc(CN3c4ccccc4Sc4ccc(C#N)cc43)ccc2C(=O)NO)cc1 [Compound 19b, N-Hydroxy-4-[(2-cyano-10H-phenothiazin-10-yl)methyl]-2–(4-methoxyphenyl)benzamide]	1.8			
4.22 ± 0.18	> 40	720 ± 30	540 ± 60	1000 ± 30		N#Cc1ccc2c(c1)N(Cc1ccc(C(=O)NO)c(-c3ccc(F)cc3)c1)c1ccccc1S2 [Compound 19c, N-Hydroxy-4-[(2-cyano-10H-phenothiazin-10-yl)methyl]-2–(4-fluorophenyl)benzamide]	2.6			
